According to patent US10793892B2, “Method for detecting the presence of expanded spectrum β-lactamase-producing bacteria in a sample” (INSERM (INSTITUT NATIONAL DE LA SANTE ET DE LA RECHERCHE …, priority 2011, dated 2020):

Key:
C. freundii [1] = test: ESBL NDP test using spiked blood cultures; type: biochemical, Citrobacter freundii; set-up: key: (+) and (−) referred to color change being, red to yellow or unchanged, respectively; (+) and (−) referred to color change being, red to yellow or unchanged, respectively; settings: C. freundii BG 1106 7767, Wild-type
Description: (§1) Strains were isolated on Mueller-Hinton agar (Biorad, Marnes-la-Coquette, France) and incubated at 37° C. for 16 h to 24 h before performing the NDP rapid ESBL test as follows. One calibrated inoculated loop (10 μl) of the tested strain was resuspended in 150 μl of 20 mM Tris-HCl lysis buffer previously distributed in Microbead tubes (Ultraclean Microbial DNA isolation kit Bead Tubes, MO BIO Laboratories, Carlsbad, USA). Mechanical lysis of bacteria was performed by strong agitation of Microbead tubes using a vortex adapter (MO BIO Laboratories) for 30 min at room temperature. This bacterial suspension was centrifuged at 10,000×g at room temperature for 5 min. Thirty μl of the supernatant was mixed in a well of a 96-well tray with 100 μl of a 1 ml solution made of 3 mg of purified cefotaxime sodium salt (Sigma-Aldrich, Saint-Quentin-Fallavier, France) in a pH 7.8 phenol red solution. […]. […] Similarly, culture extracts were analyzed in wells containing cefotaxime and tazobactam (4 mg/ml). […]
(§2) Rapid detection of ESBL producers was attempted from spiked blood cultures which positivity was assessed using the BactAlert blood culture system (bioMérieux). […] Spiked blood cultures were made of 1×10^3 CFU of each strain and incubated 24 to 48 h before a positivity of the blood culture was detected by the BactAlert system. […]

K. pneumoniae = test: ESBL NDP test using spiked blood cultures; type: biochemical, Klebsiella pneumoniae; set-up: key: (+) and (−) referred to color change being, red to yellow or unchanged, respectively; (+) and (−) referred to color change being, red to yellow or unchanged, respectively
Description: (§3) Strains were isolated on Mueller-Hinton agar (Biorad, Marnes-la-Coquette, France) and incubated at 37° C. for 16 h to 24 h before performing the NDP rapid ESBL test as follows. One calibrated inoculated loop (10 μl) of the tested strain was resuspended in 150 μl of 20 mM Tris-HCl lysis buffer previously distributed in Microbead tubes (Ultraclean Microbial DNA isolation kit Bead Tubes, MO BIO Laboratories, Carlsbad, USA). Mechanical lysis of bacteria was performed by strong agitation of Microbead tubes using a vortex adapter (MO BIO Laboratories) for 30 min at room temperature. This bacterial suspension was centrifuged at 10,000×g at room temperature for 5 min. Thirty μl of the supernatant was mixed in a well of a 96-well tray with 100 μl of a 1 ml solution made of 3 mg of purified cefotaxime sodium salt (Sigma-Aldrich, Saint-Quentin-Fallavier, France) in a pH 7.8 phenol red solution. […]. The phenol red solution was made by taking 2 ml of a concentrated pH 8 phenol solution (made from a mixture of phenol red 0.5% in distilled water) to which 16.6 ml of distilled water was added. The pH value was then adjusted to a 7.8 value by adding drops of a 1 N NaOH solution. Mixture of the phenol red solution and the enzymatic suspension being tested was incubated at 37° C. for 30 min. Similarly, culture extracts were analyzed in wells containing cefotaxime and tazobactam (4 mg/ml). Other concentrations of tazobactam and other ß-lactamase inhibitors were tested giving less clear results (data not shown). […] This definition of test positivity will be applied throughout the study.
Rapid detection of ESBL producers was attempted from spiked blood cultures which positivity was assessed using the BactAlert blood culture system (bioMérieux). […] This inoculum was reached after 24-48 h incubation in this BactAlert system. Strains were inoculated into blood culture system in presence of 10 ml of sterile blood. The panel of strains used for spiking blood cultures included either non-ESBL producers (n=24) or ESBL producers (n=64) (Table 4). Spiked blood cultures were made of 1×10^3 CFU of each strain and incubated 24 to 48 h before a positivity of the blood culture was detected by the BactAlert system. Then, 15 ml of spiked blood culture were transferred in a sterile tube and centrifuged at 1,500×g for 3 min to pellet the red blood cells. The supernatant was recovered and centrifuged for 15 min at 4,000×g to pellet the bacteria. The bacterial pellet was then resuspended in 500 μl of distilled water, transferred in 1.5 ml tube and thoroughly vortexed for 15 sec to lyse the remnant red blood cells and wash the bacterial pellet. After 5 min of centrifugation at 10,000×g, the bacterial pellet was resuspended in 150 μl of 20 mM Tris-HCl lysis buffer and distributed in beadtubes. The ESBL NDP test was then applied to this pellet as described above. Experiments were systematically performed in triplicate.

C. freundii [2] = test: ESBL NDP test using cultured strains; type: biochemical, Citrobacter freundii; set-up: key: (+) and (−) referred to color change being, red to yellow or unchanged, respectively; (+) and (−) referred to color change being, red to yellow or unchanged, respectively
Description: as §3

S. marcescens = test: Susceptibility testing, MIC by Etest; type: cell-based, Serratia marcescens; settings: S. marcescens Wild-type, chromosome-encoded cephalosporinase, n=2
Description: (§4) Susceptibility testing was performed by determining MIC values using the Etest® (AB bioMérieux; Solna, Sweden) on Mueller-Hinton agar plates at 37° C. and results were recorded according to US guidelines (CLSI), as updated in 2012 (2). The breakpoints for cefotaxime are susceptible (S)≤1 and resistant (R)≥4 μg/ml, and for ceftazidime S≤4 and R≥16 μg/ml.

E. aerogenes = test: Susceptibility testing, MIC by Etest; type: cell-based, Enterobacter aerogenes
Description: as §4

S. enterica = test: Susceptibility testing, MIC by Etest; type: cell-based, Salmonella enterica
Description: as §4

S. thyphimurium = test: ESBL NDP test using spiked blood cultures; type: biochemical; set-up: key: (+) and (−) referred to color change being, red to yellow or unchanged, respectively; (+) and (−) referred to color change being, red to yellow or unchanged, respectively; settings: S. thyphimurium 10.81, CTX-M-1
Description: as §1, §2

S. ficaria = test: ESBL NDP test using spiked blood cultures; type: biochemical; set-up: key: (+) and (−) referred to color change being, red to yellow or unchanged, respectively; (+) and (−) referred to color change being, red to yellow or unchanged, respectively; settings: S. ficaria CIP 104255, Wild-type
Description: as §1, §2

E. coli = test: Susceptibility testing, MIC by Etest; type: cell-based, Escherichia coli
Description: as §4

CO/N=C(\C(=O)N[C@@H]1C(=O)N2C(C(=O)O)=C(COC(C)=O)CS[C@H]12)c1csc(N)n1 [CTX, cefotaxime]
ESBL NDP Test from: Blood culture (C. freundii [1]): − | ESBL NDP Test from: Blood culture (K. pneumoniae; K. pneumoniae 09.127, SHV-2a): + | ESBL NDP Test from: Blood culture (K. pneumoniae; K. pneumoniae 09.138, TEM-3): + | ESBL NDP Test from: Blood culture (K. pneumoniae; K. pneumoniae 09.158, SHV-12): + | ESBL NDP Test from: Blood culture (K. pneumoniae; K. pneumoniae 09.162, TEM-52): + | ESBL NDP Test from: Blood culture (K. pneumoniae; K. pneumoniae 09.169, TEM-52): + | ESBL NDP Test from: Blood culture (K. pneumoniae; K. pneumoniae 09.181, SHV-2a): + | ESBL NDP Test from: Blood culture (K. pneumoniae; K. pneumoniae 09.190, SHV-2a): + | ESBL NDP Test from: Blood culture (K. pneumoniae; K. pneumoniae 09.200, TEM-3): + | ESBL NDP Test from: Blood culture (K. pneumoniae; K. pneumoniae 09.217, SHV-5): + | ESBL NDP Test from: Blood culture (K. pneumoniae; K. pneumoniae 09.45, SHV-12): + | ESBL NDP Test from: Blood culture (K. pneumoniae; K. pneumoniae 09.60, SHV-5): + | ESBL NDP Test from: Blood culture (K. pneumoniae; K. pneumoniae 09.99, SHV-2a): + | ESBL NDP Test from: Blood culture (K. pneumoniae; K. pneumoniae 10.159, CTX-M-3): + | ESBL NDP Test from: Blood culture (K. pneumoniae; K. pneumoniae ANG, DHA-1): − | ESBL NDP Test from: Blood culture (K. pneumoniae; K. pneumoniae BG 1202 5484, Penicillinase): − | ESBL NDP Test from: Blood culture (K. pneumoniae; K. pneumoniae FOR, DHA-2): + | ESBL NDP Test from: Blood culture (K. pneumoniae; K. pneumoniae MEK, CTX-M-15): + | ESBL NDP Test from: Blood culture (K. pneumoniae; K. pneumoniae SHI, CTX-M-15): + | ESBL NDP Test from: Colonies (C. freundii [2]; C. freundii BG 1106 7767, Wild-type): − | Test (color change) (C. freundii [2]; C. freundii CTX-M-15, n=3): + | Test (color change) (C. freundii [2]; C. freundii TEM-3, n=1): + | Test (color change) (C. freundii [2]; C. freundii Wild-type, chromosome-encoded cephalosporinase, n=1): − | MICs range (S. marcescens): 0.19 to 0.75 µg/mL | MICs range (E. aerogenes; E. aerogenes TEM-24, n=6): 0.5 to 8 µg/mL | MICs range (E. aerogenes; E. aerogenes TEM-121, n=1): <0.06 µg/mL | MICs range (E. aerogenes; E. aerogenes Wild-type, chromosome-encoded cephalosporinase, n=1): 0.094 µg/mL | MICs range (S. enterica; S. enterica CTX-M-1, n=1): >16 µg/mL | MICs range (S. enterica; S. enterica Wild-type, no resistance, n=1): 0.05 µg/mL | ESBL NDP Test from: Blood culture (S. thyphimurium): + | ESBL NDP Test from: Blood culture (S. ficaria): − | MICs range (E. coli; E. coli ACC-1, n=1, first line): >16 µg/mL | MICs range (E. coli; E. coli ACC-1, n=1, second line): >16 µg/mL | MICs range (E. coli; E. coli CMY-2, n=1): >16 µg/mL | MICs range (E. coli; E. coli CTX-M-1, n=16): >16 µg/mL | MICs range (E. coli; E. coli CTX-M-2, n=3): >16 µg/mL | MICs range (E. coli; E. coli CTX-M-3, n=1): >16 µg/mL | MICs range (E. coli; E. coli CTX-M-9, n=1): >16 µg/mL | MICs range (E. coli; E. coli CTX-M-14, n=15): >16 µg/mL | MICs range (E. coli; E. coli CTX-M-27, n=6): >16 µg/mL | MICs range (E. coli; E. coli CTX-M-28, n=1): >16 µg/mL | MICs range (E. coli; E. coli CTX-M-32, n=1): >16 µg/mL | MICs range (E. coli; E. coli CTX-M-97, n=1): >16 µg/mL | MICs range (E. coli; E. coli DHA-1, n=1): 0.25 µg/mL | MICs range (E. coli; E. coli SHV-3, n=1): 12 µg/mL | MICs range (E. coli; E. coli SHV-12, n=1): 0.75 µg/mL | MICs range (E. coli; E. coli SHV-12, n=6): >16 µg/mL | MICs range (E. coli; E. coli TEM-1 penicillinase, n=5): 0.03 to 0.09 µg/mL | MICs range (E. coli; E. coli TEM-12, n=1): 0.5 µg/mL | MICs range (E. coli; E. coli TEM-29, n=2): 0.25 µg/mL | MICs range (E. coli; E. coli TEM-133, n=1): 0.19 µg/mL | MICs range (E. coli; E. coli VEB-1, n=1): 8 µg/mL | MICs range (E. coli; E. coli Wild-type, no resistance, n=5): 0.02 to 0.04 µg/mL
